Reference: the NIST ThermoML archive (doi:10.1021/je200854k)
± gives the expanded uncertainty stated by the source.

Conditions: Liquid, Capillary tube (Ostwald / Ubbelohde) method

FCC(F)(F)F [1,1,1,2-tetrafluoroethane]
viscosity [mPa·s]
Conditions | 1000 kPa | 2000 kPa | 5000 kPa | 10000 kPa | 15000 kPa | 20000 kPa | 25000 kPa | 30000 kPa | 35000 kPa | 40000 kPa
258.15 K | 0.3251 ± 0.007 | – | 0.3468 ± 0.0074 | 0.3675 ± 0.0078 | 0.3885 ± 0.0083 | 0.4094 ± 0.0087 | 0.4309 ± 0.0091 | 0.4502 ± 0.0095 | 0.4712 ± 0.01 | 0.4996 ± 0.011
278.14 K | 0.2536 ± 0.0055 | – | 0.2678 ± 0.0058 | 0.2859 ± 0.0062 | 0.3033 ± 0.0065 | 0.3209 ± 0.0069 | 0.3381 ± 0.0072 | 0.3543 ± 0.0076 | 0.3712 ± 0.0079 | 0.3885 ± 0.0084
298.14 K | 0.1962 ± 0.0043 | – | 0.2108 ± 0.0047 | 0.2273 ± 0.005 | 0.2421 ± 0.0053 | 0.2567 ± 0.0056 | 0.2716 ± 0.0059 | 0.2876 ± 0.0062 | 0.3017 ± 0.0065 | 0.3169 ± 0.0068
318.13 K | – | 0.1549 ± 0.0035 | 0.1656 ± 0.0038 | 0.1828 ± 0.0041 | 0.197 ± 0.0043 | 0.2111 ± 0.0046 | 0.2254 ± 0.0049 | 0.2393 ± 0.0052 | 0.2511 ± 0.0054 | 0.2647 ± 0.0057
338.13 K | – | 0.1152 ± 0.0029 | 0.1288 ± 0.0031 | 0.1466 ± 0.0034 | 0.1618 ± 0.0036 | 0.1754 ± 0.0039 | 0.1893 ± 0.0042 | 0.2007 ± 0.0044 | – | –

FC(F)(F)CC(F)(F)F [1,1,1,3,3,3-hexafluoropropane]
viscosity [mPa·s]
Conditions | 1000 kPa | 2000 kPa | 5000 kPa | 10000 kPa | 15000 kPa | 20000 kPa | 25000 kPa | 30000 kPa | 35000 kPa | 40000 kPa
253.15 K | 0.5347 ± 0.011 | – | 0.5621 ± 0.012 | 0.5982 ± 0.013 | 0.6363 ± 0.013 | 0.671 ± 0.014 | 0.7092 ± 0.015 | 0.751 ± 0.016 | 0.7898 ± 0.017 | 0.8347 ± 0.018
263.16 K | 0.4612 ± 0.0098 | – | 0.4857 ± 0.01 | 0.5184 ± 0.011 | 0.5511 ± 0.012 | 0.583 ± 0.012 | 0.6154 ± 0.013 | 0.6508 ± 0.014 | 0.6835 ± 0.014 | 0.7189 ± 0.015
273.14 K | 0.3999 ± 0.0086 | – | 0.4237 ± 0.0091 | 0.452 ± 0.0097 | 0.4821 ± 0.01 | 0.5127 ± 0.011 | 0.5412 ± 0.011 | 0.5699 ± 0.012 | 0.6012 ± 0.013 | 0.6317 ± 0.013
283.14 K | 0.35 ± 0.0075 | – | 0.3722 ± 0.008 | 0.3989 ± 0.0086 | 0.4259 ± 0.0091 | 0.4534 ± 0.0097 | 0.4798 ± 0.01 | 0.5054 ± 0.011 | 0.5325 ± 0.011 | 0.5603 ± 0.012
293.14 K | 0.3074 ± 0.0067 | – | 0.3281 ± 0.0071 | 0.3534 ± 0.0076 | 0.3789 ± 0.0081 | 0.4034 ± 0.0086 | 0.4271 ± 0.0091 | 0.452 ± 0.0096 | 0.4757 ± 0.01 | 0.5014 ± 0.011
303.14 K | 0.2708 ± 0.0059 | – | 0.2906 ± 0.0063 | 0.3141 ± 0.0068 | 0.3383 ± 0.0073 | 0.362 ± 0.0078 | 0.3838 ± 0.0082 | 0.4053 ± 0.0086 | 0.429 ± 0.0091 | 0.4513 ± 0.0096
313.14 K | 0.2385 ± 0.0053 | – | 0.2585 ± 0.0057 | 0.2817 ± 0.0061 | 0.3041 ± 0.0066 | 0.3268 ± 0.007 | 0.3467 ± 0.0074 | 0.3678 ± 0.0079 | 0.3897 ± 0.0083 | 0.41 ± 0.0087
323.13 K | 0.21 ± 0.0047 | – | 0.2306 ± 0.0051 | 0.253 ± 0.0056 | 0.2742 ± 0.006 | 0.295 ± 0.0064 | 0.3155 ± 0.0068 | 0.3353 ± 0.0072 | 0.3544 ± 0.0076 | 0.3744 ± 0.008
333.13 K | 0.1844 ± 0.0042 | – | 0.2046 ± 0.0046 | 0.2274 ± 0.005 | 0.2481 ± 0.0054 | 0.2683 ± 0.0058 | 0.2868 ± 0.0062 | 0.3059 ± 0.0066 | 0.3248 ± 0.007 | 0.3434 ± 0.0074
343.13 K | – | 0.1669 ± 0.0039 | 0.1825 ± 0.0042 | 0.2044 ± 0.0046 | 0.2255 ± 0.005 | 0.2447 ± 0.0054 | 0.2631 ± 0.0057 | 0.2805 ± 0.0061 | 0.2994 ± 0.0065 | 0.3154 ± 0.0068
353.13 K | – | 0.1456 ± 0.0035 | 0.1618 ± 0.0038 | 0.1858 ± 0.0042 | 0.2064 ± 0.0046 | 0.2239 ± 0.0049 | 0.2427 ± 0.0053 | 0.2591 ± 0.0056 | 0.2761 ± 0.006 | 0.2925 ± 0.0063
363.14 K | – | 0.1248 ± 0.0032 | 0.1432 ± 0.0035 | 0.1663 ± 0.0038 | 0.1863 ± 0.0042 | 0.2051 ± 0.0046 | 0.2226 ± 0.0049 | 0.2395 ± 0.0052 | 0.2555 ± 0.0056 | 0.2713 ± 0.0059
373.14 K | – | 0.1074 ± 0.0031 | 0.1287 ± 0.0033 | 0.1531 ± 0.0036 | 0.1718 ± 0.0039 | 0.1886 ± 0.0042 | 0.2056 ± 0.0046 | 0.2222 ± 0.0049 | 0.2366 ± 0.0052 | 0.2495 ± 0.0054

FC(F)CC(F)(F)F [1,1,1,3,3-pentafluoropropane]
viscosity [mPa·s]
Conditions | 1000 kPa | 2000 kPa | 5000 kPa | 10000 kPa | 15000 kPa | 20000 kPa | 25000 kPa | 30000 kPa | 35000 kPa | 40000 kPa
263.15 K | 0.679 ± 0.014 | – | 0.7113 ± 0.015 | 0.7526 ± 0.016 | 0.7951 ± 0.017 | 0.8369 ± 0.018 | 0.8778 ± 0.018 | 0.9236 ± 0.019 | 0.9686 ± 0.02 | 1.015 ± 0.021
273.14 K | 0.5811 ± 0.012 | – | 0.6083 ± 0.013 | 0.6456 ± 0.014 | 0.6801 ± 0.014 | 0.717 ± 0.015 | 0.7534 ± 0.016 | 0.7902 ± 0.017 | 0.8293 ± 0.017 | 0.8685 ± 0.018
283.14 K | 0.4999 ± 0.011 | – | 0.5252 ± 0.011 | 0.5564 ± 0.012 | 0.5887 ± 0.012 | 0.6204 ± 0.013 | 0.6519 ± 0.014 | 0.6847 ± 0.014 | 0.7184 ± 0.015 | 0.7497 ± 0.016
293.14 K | 0.4344 ± 0.0092 | – | 0.4571 ± 0.0097 | 0.4859 ± 0.01 | 0.5143 ± 0.011 | 0.5433 ± 0.011 | 0.5704 ± 0.012 | 0.5998 ± 0.013 | 0.6291 ± 0.013 | 0.6589 ± 0.014
303.14 K | 0.3799 ± 0.0081 | – | 0.4011 ± 0.0086 | 0.4282 ± 0.0091 | 0.4534 ± 0.0096 | 0.4796 ± 0.01 | 0.5048 ± 0.011 | 0.5306 ± 0.011 | 0.5573 ± 0.012 | 0.5829 ± 0.012
313.14 K | 0.3343 ± 0.0072 | – | 0.3538 ± 0.0076 | 0.379 ± 0.0081 | 0.4035 ± 0.0086 | 0.427 ± 0.0091 | 0.4502 ± 0.0096 | 0.4745 ± 0.01 | 0.4975 ± 0.01 | 0.5211 ± 0.011
323.13 K | 0.2952 ± 0.0064 | – | 0.3139 ± 0.0068 | 0.3372 ± 0.0072 | 0.3595 ± 0.0077 | 0.3816 ± 0.0081 | 0.4029 ± 0.0086 | 0.425 ± 0.009 | 0.4464 ± 0.0095 | 0.4694 ± 0.01
333.13 K | 0.2601 ± 0.0057 | – | 0.2788 ± 0.0061 | 0.3009 ± 0.0065 | 0.3232 ± 0.007 | 0.3433 ± 0.0074 | 0.3637 ± 0.0078 | 0.3837 ± 0.0082 | 0.4048 ± 0.0086 | 0.4241 ± 0.009
343.13 K | 0.2301 ± 0.0051 | – | 0.2484 ± 0.0055 | 0.2698 ± 0.0059 | 0.29 ± 0.0063 | 0.31 ± 0.0067 | 0.3304 ± 0.0071 | 0.3488 ± 0.0075 | 0.3686 ± 0.0079 | 0.3872 ± 0.0082
353.13 K | 0.2053 ± 0.0046 | – | 0.2226 ± 0.0049 | 0.2428 ± 0.0053 | 0.2627 ± 0.0057 | 0.2819 ± 0.0061 | 0.2999 ± 0.0065 | 0.3186 ± 0.0068 | 0.3361 ± 0.0072 | 0.3537 ± 0.0076
363.14 K | – | 0.1838 ± 0.0042 | 0.1972 ± 0.0044 | 0.219 ± 0.0049 | 0.2389 ± 0.0052 | 0.2561 ± 0.0056 | 0.2746 ± 0.0059 | 0.2918 ± 0.0063 | 0.3084 ± 0.0066 | 0.325 ± 0.007
373.14 K | – | 0.1612 ± 0.0038 | 0.1758 ± 0.004 | 0.1977 ± 0.0044 | 0.2165 ± 0.0048 | 0.2346 ± 0.0051 | 0.2518 ± 0.0055 | 0.2679 ± 0.0058 | 0.2839 ± 0.0061 | –

Cc1ccccc1 [toluene]
viscosity [mPa·s]
Conditions | 248.16 K | 273.15 K | 298.14 K | 323.13 K | 348.13 K
1000 kPa | 1.19 ± 0.025 | 0.7764 ± 0.016 | 0.5581 ± 0.012 | 0.4252 ± 0.009 | 0.3356 ± 0.0072
10000 kPa | 1.285 ± 0.027 | 0.8352 ± 0.018 | 0.6005 ± 0.013 | 0.4563 ± 0.0097 | 0.3616 ± 0.0077
20000 kPa | 1.397 ± 0.029 | 0.9052 ± 0.019 | 0.644 ± 0.014 | 0.4908 ± 0.01 | 0.3907 ± 0.0083
30000 kPa | 1.521 ± 0.032 | 0.9742 ± 0.021 | 0.6909 ± 0.015 | 0.5267 ± 0.011 | 0.4198 ± 0.0089
40000 kPa | – | 1.045 ± 0.022 | 0.7419 ± 0.016 | 0.5662 ± 0.012 | 0.4497 ± 0.0096
